Measured values published in article PMC10763615, “Identification and engineering of potent cyclic peptides with selective or promiscuous binding through biochemical profiling and bioinformatic data analysis” (RSC Chemical Biology, 2023).
Like-named read-outs stand apart in the source and are kept apart here. Positions of bridges follow the written chain, without caps; N, C: chain ends. Residues, ends and D or L forms follow the SMILES beside them.

Columns and labels:
Type in all cases: binding
FGF-R4 ECD = biological target: T1, FGF-R4 ECD (Homo sapiens, UniProt P22455); assay: single concentration BLI of crude peptides; conditions: read-out: KD (4)
T1 construct: DNA constructs for the extracellular domain (ECD) of human FGF-; HPC4 (C); made in house; host or cells: HEK 293-6E
T1 sequence (P22455 22-369 limits assumed): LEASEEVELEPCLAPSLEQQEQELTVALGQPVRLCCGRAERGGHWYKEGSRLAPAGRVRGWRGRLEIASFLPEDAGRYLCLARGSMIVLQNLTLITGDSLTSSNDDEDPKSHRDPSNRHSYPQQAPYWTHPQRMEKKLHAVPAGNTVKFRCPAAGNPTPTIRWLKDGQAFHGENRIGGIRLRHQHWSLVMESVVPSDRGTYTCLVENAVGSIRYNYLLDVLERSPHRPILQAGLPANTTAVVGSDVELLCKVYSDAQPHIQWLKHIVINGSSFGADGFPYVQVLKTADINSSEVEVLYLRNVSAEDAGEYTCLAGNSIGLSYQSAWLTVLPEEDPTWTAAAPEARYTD
Protocol: (§1) KD affinity binding measurements were obtained by biolayer interferometry (BLI) instruments (Fortebio Octet HTX, or Sartorius Octet RH16 using either 8 or 16 channel mode.
For single concentration binding experiments, 50 μM peptide stocks in folding buffer were diluted 1:50 in mRNA display selection buffer (PBS pH7.4 supplemented with 0.05% Tween-20 and 0.01% BSA) in either a 96 well black plate, or a 384 well tilted bottom microplate (ForteBio). Biotinylated FGF-R protein was loaded onto Streptavidin-functionalised biosensors (ForteBio) and immersed into ~1 μM peptide to obtain association kinetics curves. Dissociation kinetics curves were obtained by subsequent immersion of ligand-associated loaded sensors into a 1:50 dilution of folding buffer in mRNA display selection buffer. Fitted KD data was adjusted for concentration as determined by UPLC-CAD. […]

FGF-R1C ECD = biological target: T2, FGF-R1C ECD (Homo sapiens, UniProt P11362); assay: biochemical; design: DNA constructs for the extracellular domain (ECD) of human FGF-; HPC4 (C); made in house; host or cells: HEK 293-6E
T2 sequence (P11362 22-376 limits assumed): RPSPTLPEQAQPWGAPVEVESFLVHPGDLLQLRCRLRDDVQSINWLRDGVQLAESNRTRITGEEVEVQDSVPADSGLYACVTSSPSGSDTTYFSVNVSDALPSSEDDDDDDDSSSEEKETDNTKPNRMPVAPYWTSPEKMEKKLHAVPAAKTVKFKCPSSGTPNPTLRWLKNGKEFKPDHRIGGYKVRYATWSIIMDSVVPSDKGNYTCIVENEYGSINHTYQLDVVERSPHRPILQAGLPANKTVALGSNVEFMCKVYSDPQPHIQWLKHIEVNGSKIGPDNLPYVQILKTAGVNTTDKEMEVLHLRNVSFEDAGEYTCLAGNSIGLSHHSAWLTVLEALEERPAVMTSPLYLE
Protocol: as §1
(§2) For single concentration binding experiments, 50 μM peptide stocks in folding buffer were diluted 1:50 in mRNA display selection buffer (PBS pH7.4 supplemented with 0.05% Tween-20 and 0.01% BSA) in either a 96 well black plate, or a 384 well tilted bottom microplate (ForteBio). Biotinylated FGF-R protein was loaded onto Streptavidin-functionalised biosensors (ForteBio) and immersed into ~1 μM peptide to obtain association kinetics curves. Dissociation kinetics curves were obtained by subsequent immersion of ligand-associated loaded sensors into a 1:50 dilution of folding buffer in mRNA display selection buffer. Fitted KD data was adjusted for concentration as determined by UPLC-CAD.
(§3) For accurate multi-concentration KD determination, dilution series of each peptide were made, and association and dissociation kinetics curves were obtained as above for each concentration to fit a multi-point KD binding model. Data collection and analysis was performed using the Octet Instrument Control […]
(§4) concentration assay kinetics curves shown in supplementary Figure S 19-24.

FGF-R3C ECD = biological target: T3, FGF-R3C ECD (Homo sapiens, UniProt P22607); assay: biochemical; design: DNA constructs for the extracellular domain (ECD) of human FGF-; HPC4 (C); made in house; host or cells: HEK 293-6E
T3 sequence (P22607 23-375 limits assumed): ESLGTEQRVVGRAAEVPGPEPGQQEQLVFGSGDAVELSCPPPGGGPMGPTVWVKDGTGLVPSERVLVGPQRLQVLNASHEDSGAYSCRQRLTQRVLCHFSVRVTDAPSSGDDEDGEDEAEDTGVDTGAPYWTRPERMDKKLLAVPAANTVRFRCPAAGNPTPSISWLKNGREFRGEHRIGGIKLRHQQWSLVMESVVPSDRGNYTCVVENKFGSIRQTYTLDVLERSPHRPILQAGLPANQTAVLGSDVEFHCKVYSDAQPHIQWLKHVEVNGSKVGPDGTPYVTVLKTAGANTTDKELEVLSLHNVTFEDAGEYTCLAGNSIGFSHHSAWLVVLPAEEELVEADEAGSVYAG
Protocol: as §1, §2, §3, §4

[1] = crude T18 selection 1 (1:1:1) peptides, single concentration BLI (Table S4)

| Compound | Kd (FGF-R4 ECD; crude NNK peptides, single concentration BLI (Table S3)) [µM] | Kd (FGF-R1C ECD) [µM] | Kd (FGF-R3C ECD) [µM] | Kd (FGF-R4 ECD; [1]) [µM] |
| --- | --- | --- | --- | --- |
| CC[C@H](C)[C@@H]1NC(=O)[C@H](CCCCN)NC(=O)[C@H](Cc2ccc(O)cc2)NC(=O)[C@H](CC(C)C)NC(=O)[C@H](CC(C)C)NC(=O)[C@H](C)NC(=O)[C@H](Cc2ccccc2)NC(=O)[C@@H](NC(=O)[C@H](CCSC)NC(C)=O)CSSC[C@@H](C(=O)NCC(=O)N[C@@H](CO)C(=O)NCC(=O)N[C@@H](CO)C(=O)N[C@@H](CC(=O)O)C(=O)N[C@@H](Cc2ccc(O)cc2)C(=O)N[C@@H](CCCCN)C(=O)N[C@@H](CC(=O)O)C(=O)N[C@@H](CC(=O)O)C(=O)N[C@@H](CC(=O)O)C(=O)N[C@@H](CC(=O)O)C(=O)N[C@@H](CCCCN)C(N)=O)NC(=O)[C@H](CCCNC(=N)N)NC(=O)[C@H](CO)NC(=O)[C@H](CC(C)C)NC1=O (Ac-MCFALLYKILSRCGSGSDYKDDDDK-NH2; disulfide 2-13) | > 10 | > 10 | > 10 | – |
| CC[C@H](C)[C@@H]1NC(=O)[C@H](CCCCN)NC(=O)[C@@H](NC(=O)[C@H](CCSC)NC(C)=O)CSSC[C@@H](C(=O)NCC(=O)N[C@@H](CO)C(=O)NCC(=O)N[C@@H](CO)C(=O)N[C@@H](CC(=O)O)C(=O)N[C@@H](Cc2ccc(O)cc2)C(=O)N[C@@H](CCCCN)C(=O)N[C@@H](CC(=O)O)C(=O)N[C@@H](CC(=O)O)C(=O)N[C@@H](CC(=O)O)C(=O)N[C@@H](CC(=O)O)C(=O)N[C@@H](CCCCN)C(N)=O)NC(=O)[C@H](C(C)C)NC(=O)[C@H](Cc2c[nH]c3ccccc23)NC(=O)[C@H](Cc2c[nH]c3ccccc23)NC(=O)[C@H](Cc2ccccc2)NC(=O)[C@H](CCCCN)NC(=O)[C@H](Cc2c[nH]cn2)NC(=O)[C@H](CC(=O)O)NC(=O)[C@H](C(C)C)NC(=O)[C@H](Cc2ccc(O)cc2)NC(=O)[C@H](Cc2c[nH]c3ccccc23)NC1=O (Ac-MCKIWYVDHKFWWVCGSGSDYKDDDDK-NH2; disulfide 2-15) | – | > 10 | > 10 | 0.002 |
| CC[C@H](C)[C@@H]1NC(=O)[C@H](CC(C)C)NC(=O)[C@H](Cc2ccc(O)cc2)NC(=O)[C@H](Cc2c[nH]cn2)NC(=O)[C@H](Cc2c[nH]cn2)NC(=O)CNC(=O)[C@H](CC(C)C)NC(=O)[C@H](C(C)C)NC(=O)[C@H](Cc2ccccc2)NC(=O)[C@H](CC(=O)O)NC(=O)[C@H](Cc2ccc(O)cc2)NC(=O)[C@H]([C@@H](C)O)NC(=O)[C@@H](NC(=O)[C@H](CCSC)NC(C)=O)CSSC[C@@H](C(=O)NCC(=O)N[C@@H](CO)C(=O)NCC(=O)N[C@@H](CO)C(=O)N[C@@H](CC(=O)O)C(=O)N[C@@H](Cc2ccc(O)cc2)C(=O)N[C@@H](CCCCN)C(=O)N[C@@H](CC(=O)O)C(=O)N[C@@H](CC(=O)O)C(=O)N[C@@H](CC(=O)O)C(=O)N[C@@H](CC(=O)O)C(=O)N[C@@H](CCCCN)C(N)=O)NC1=O (Ac-MCTYDFVLGHHYLICGSGSDYKDDDDK-NH2; disulfide 2-15) | – | > 10 | > 10 | > 10 |
| CC[C@H](C)[C@@H]1NC(=O)[C@H](CCCCN)NC(=O)[C@H](Cc2ccccc2)NC(=O)[C@H](Cc2ccccc2)NC(=O)[C@H](Cc2c[nH]cn2)NC(=O)[C@H]([C@@H](C)CC)NC(=O)[C@@H]2CCCN2C(=O)[C@@H](NC(=O)[C@H](CCSC)NC(C)=O)CSSC[C@@H](C(=O)NCC(=O)N[C@@H](CO)C(=O)NCC(=O)N[C@@H](CO)C(=O)N[C@@H](CCC(=O)O)C(=O)N[C@@H](CCC(=O)O)C(=O)NCC(=O)N[C@@H](CO)C(=O)NCC(=O)N[C@@H](CO)C(=O)N[C@@H](CC(=O)O)C(=O)N[C@@H](Cc2ccc(O)cc2)C(=O)N[C@@H](CCCCN)C(=O)N[C@@H](CC(=O)O)C(=O)N[C@@H](CC(=O)O)C(=O)N[C@@H](CC(=O)O)C(=O)N[C@@H](CC(=O)O)C(=O)N[C@@H](CCCCN)C(N)=O)NC(=O)[C@H](Cc2c[nH]cn2)NC(=O)[C@H](CCCNC(=N)N)NC(=O)[C@H](Cc2ccc(O)cc2)NC(=O)[C@H](C(C)C)NC1=O (Ac-MCPIHFFKIVYRHCGSGSEEGSGSDYKDDDDK-NH2; disulfide 2-14) | – | 0.01 | > 10 | 0.01 |
| CSCC[C@H](NC(C)=O)C(=O)N[C@H]1CSSC[C@@H](C(=O)NCC(=O)N[C@@H](CO)C(=O)NCC(=O)N[C@@H](CO)C(=O)N[C@@H](CC(=O)O)C(=O)N[C@@H](Cc2ccc(O)cc2)C(=O)N[C@@H](CCCCN)C(=O)N[C@@H](CC(=O)O)C(=O)N[C@@H](CC(=O)O)C(=O)N[C@@H](CC(=O)O)C(=O)N[C@@H](CC(=O)O)C(=O)N[C@@H](CCCCN)C(N)=O)NC(=O)[C@H](CCC(N)=O)NC(=O)[C@H](CCC(=O)O)NC(=O)[C@H](Cc2c[nH]c3ccccc23)NC(=O)[C@H](Cc2c[nH]cn2)NC(=O)CNC(=O)[C@H](Cc2ccc(O)cc2)NC(=O)[C@@H]2CCCN2C(=O)[C@H](Cc2c[nH]cn2)NC(=O)[C@H](CCCNC(=N)N)NC(=O)[C@H](Cc2c[nH]cn2)NC(=O)[C@H](CCC(=O)O)NC1=O (Ac-MCEHRHPYGHWEQCGSGSDYKDDDDK-NH2; disulfide 2-14) | – | > 10 | > 10 | > 10 |
| CSCC[C@H](NC(C)=O)C(=O)N[C@H]1CSSC[C@@H](C(=O)NCC(=O)N[C@@H](CO)C(=O)NCC(=O)N[C@@H](CO)C(=O)N[C@@H](CC(=O)O)C(=O)N[C@@H](Cc2ccc(O)cc2)C(=O)N[C@@H](CCCCN)C(=O)N[C@@H](CC(=O)O)C(=O)N[C@@H](CC(=O)O)C(=O)N[C@@H](CC(=O)O)C(=O)N[C@@H](CC(=O)O)C(=O)N[C@@H](CCCCN)C(N)=O)NC(=O)[C@H](CCC(N)=O)NC(=O)[C@H](CCCNC(=N)N)NC(=O)[C@H](CCCCN)NC(=O)[C@H](C(C)C)NC(=O)[C@H](CC(C)C)NC(=O)[C@H](CC(C)C)NC(=O)[C@H](Cc2ccc(O)cc2)NC(=O)[C@H](Cc2ccc(O)cc2)NC(=O)[C@H](Cc2ccccc2)NC(=O)[C@H](CC(C)C)NC(=O)[C@H](Cc2c[nH]cn2)NC(=O)[C@H](CCC(=O)O)NC1=O (Ac-MCEHLFYYLLVKRQCGSGSDYKDDDDK-NH2; disulfide 2-15) | – | > 10 | > 10 | 0.001 |
| CC[C@H](C)[C@@H]1NC(=O)[C@H](CCC(=O)O)NC(=O)[C@H](CC(=O)O)NC(=O)[C@H](CCC(=O)O)NC(=O)[C@H](Cc2ccc(O)cc2)NC(=O)[C@@H](NC(=O)[C@H](CCSC)NC(C)=O)CSSC[C@@H](C(=O)NCC(=O)N[C@@H](CO)C(=O)NCC(=O)N[C@@H](CO)C(=O)N[C@@H](CC(=O)O)C(=O)N[C@@H](Cc2ccc(O)cc2)C(=O)N[C@@H](CCCCN)C(=O)N[C@@H](CC(=O)O)C(=O)N[C@@H](CC(=O)O)C(=O)N[C@@H](CC(=O)O)C(=O)N[C@@H](CC(=O)O)C(=O)N[C@@H](CCCCN)C(N)=O)NC(=O)[C@H](Cc2ccc(O)cc2)NC(=O)[C@H](CC(C)C)NC(=O)[C@H](C(C)C)NC(=O)[C@H](CCCCN)NC(=O)[C@H](Cc2ccc(O)cc2)NC(=O)[C@H](CC(C)C)NC(=O)[C@H](Cc2c[nH]c3ccccc23)NC1=O (Ac-MCYEDEIWLYKVLYCGSGSDYKDDDDK-NH2; disulfide 2-15) | – | > 10 | > 10 | 0.009 |
